Source: US20150366839A1, “Schisantherin A for the treatment of neurodegenerative diseases” (priority 2014, published 2015)
Like-named read-outs stand apart in the source and are kept apart here.

How the values were obtained:
SH-SY5Y cells [1] = experiment: MTT neuroprotection against MPP+-induced cell damage; format: cell-based; settings: for protection against MPP+-induced cell damage (cell viability): various concentrations 12 h before MPP+
Procedure: (§1) Human neuroblastoma SH-SY5Y cells were purchased from the American Type Culture Collection (ATCC, Manassas, Va., USA) and cultured in a humidified 5% (v/v) CO2 atmosphere in 37° C. in Dulbecco's Modified Eagle Medium (DMEM) (Life technologies, NY, USA) supplemented with 10% FBS, 1% penicillin (100 U/mL) and streptomycin (100 μg/mL). All experiments were carried out 48 h after the cells were seeded.
In another study, SH-SY5Y cells were seeded in 96-well plates (1×10^4 cells/well) for 48 h. SH-SY5Y cells were pre-treated with different concentrations of the five lignans for 12 h and the cell viability was checked by MTT assay. SH-SY5Y cells were pre-treated with different concentrations of the five lignans for 12 h and then exposed to 2 mM MPP or vehicle for 36 h. Cells were incubated at 37° C. for 4 h in 0.5 mg/mL MTT solution (prepared in serum free DMEM medium). The medium was then discarded and 100 μL of DMSO was added to each well to dissolve the violet-formazan crystals. The absorbance at 570 nm with 655 nm as a reference wavelength was measured by a multi-label counter (Wallac VICTOR3TMV, Perkin Elmer, Netherlands). Cell viability was expressed as a percentage of the value of the cells without MPP treatment. The LC50 and EC50 were calculated by GraphPad Prism V5.0 (GraphPad Software, Inc., San Diego, Calif.).
(§2) To evaluate the cytotoxicity of five selected lignans of S. chinensis, SH-SY5Y cells were treated with various concentrations of the tested compounds for 12 h and the cell viability was measured using the MTT assay. […] To further study the neuroprotective activities of the five lignans in vitro, cells were treated with various concentrations of the tested compounds for 12 h before exposed to MPP^+. […] Values represent mean±S.D. ###P<0.005 versus control group; *p<0.05, **p<0.01 and *** p<0.005 versus MPP group. […] The therapeutic index of SchiA and SC were 14.9 and 8.8, respectively.
The inventors also investigated the contribution of the PI3K/Akt pathway in the neuroprotective effects of SchiA. The inventors measured phosphorylation-Akt (p-Akt) levels after pre-treated with 60 μM SchiA for 12 h and then exposed to 2 mM MPP for another 36 h. […] And MPP^+-induced down-regulation of Akt expressions was inhibited by SchiA treatment. […] To further validate whether the activation of PI3K/Akt signaling pathway, the inventors determined the blocking effect of PI3K/Akt inhibitor such as AKT inhibitor IV on the in vitro neuroprotective effect of SchiA. SH-SY5Y cells were pre-incubated with Akt inhibitor IV (2 μM) for 1 h and then treated with SchiA for 12 h. Drug-treated cells were further treated with 2 mM MPP for another 36 h, MTT assay was used to determinate cell viability.

SH-SY5Y cells [2] = experiment: MTT cytotoxicity of the five lignans; format: cell-based
Procedure: as §1
(§3) Cell viability was determined by 3-(4,5-dimethyl-2-thiazolyl) 2,5-diphenyl-2H-tetrazolium bromide (MTT) assay (Sigma-Aldrich, USA). SH-SY5Y cells were seeded in 96-well plates (1×10^4 cells/well) for 48 h. SH-SY5Y cells were pre-treated with different concentrations of the five lignans (i.e. Schizandrin A, Schizandrin B, SC, Schizandrol A and SchiA) for 12 h and the cell viability was checked by MTT assay. Otherwise, SH-SY5Y cells were pre-treated with different concentrations of the five lignans for 12 h and then exposed to 400 μM 6-OHDA for 4 h. Cells were incubated at 37° C. for 4 h in 0.5 mg/mL MTT solution (prepared in serum free DMEM medium). The medium was then removed, and 100 μL of DMSO was added to each well to dissolve the violet-formazan crystals. The absorbance at 570 nm with 655 nm as a reference wavelength was measured by a multi-label counter (Wallac VICTOR3TMV, Perkin Elmer, Netherlands). Cell viability was expressed as a percentage of the value of the cells without 6-OHDA treatment. The LC50 and EC50 were calculated by GraphPad Prism V5.0 (GraphPad Software, Inc., San Diego, Calif.).
To evaluate the cytotoxicity of five selected lignans of S. chinensis, SH-SY5Y cells were treated with various concentrations of the tested compounds for 12 h and the cell viability was measured using the MTT assay.
as §2

SH-SY5Y cells [3] = experiment: MTT neuroprotection against 6-OHDA-induced cytotoxicity; format: cell-based, Human; settings: for protection against 6-OHDA-induced damage (cell viability): 3, 6, 12, 25, 50 and 100 μM for 12 h before 400 μM 6-OHDA 4 h
Procedure: as §1, §3
To further study the neuroprotective activities of the five lignans against 6-OHDA-induced cytotoxicity, cells were treated with various concentrations (3, 6, 12, 25, 50 and 100 μM) of the tested compounds for 12 h before exposed to 400 μM 6-OHDA for 4 h.

zebrafish larvae = format: in vivo
Procedure: (§4) The wild type zebrafish was used for this study.
Zebrafish behaviour was analyzed using a digital video tracking system (Viewpoint ZebraLab system). The system consists of a digital video camera connected to a computer system running the analysis software ZebraLab Man Rev 3.6B.
Moreover, 6-OHDA treatment also markedly altered the swimming behavior of zebrafish. […] Values in FIG. 9 represent the mean±SEM of 12 fish larvae per group of 3-time independent experiments. ###P<0.005 versus control group; *p<0.05, **p<0.01 and *** p<0.005 versus 6-OHDA group. […] The total swimming distance in 10 min travelled by the zebrafish larvae was decreased after exposure to 6-OHDA.

DA neurons in zebrafish = experiment: Anti-TH whole-mount immunostaining, 6-OHDA-induced DA neuron loss; format: in vivo; settings: 3 μM positive control, 250 μM 6-OHDA, 2 days
Procedure: as §4
Zebrafish at one dpf were exposed to 250 μM 6-OHDA in the presence or absence of 10 μM Schi A or 3 μM nomifensine (Nom, a DAT (dopamine transporter) inhibitor used as a positive control) for 2 days. Then zebrafish were collected for immunostaining to detect the DA neurons. Zebrafish were fixed in 4% paraformaldehyde in PBS for 30 min, rinsed, and stored at −20° C. in 100% MtOH. Whole-mount immunostaining was done by standard methods (Zhang, Cheang et al. 2011). Briefly, paraformaldehyde fixed samples were blocked (2% goat serum and 0.1% BSA in PBST,) for 1 h at room temperature. A mouse monoclonal anti-tyrosine hydroxylase antibody (1:200 diluted in blocking buffer) was used as the primary antibody and incubated overnight with the sample at 4° C. […] Semi-quantification TH^+ cells were assessed by an investigator blinded to drug treatment history of zebrafish using Image-Pro Plus 6.0 software (Media Cybernetics, Silver Spring, Md., USA). Results are expressed as percentage of area of TH^+ cells in untreated control group.
To further evaluate the neuroprotective effect of SchiA in vivo, the inventors examined the DA neurons in zebrafish by whole-mount immunofluorescent staining with an antibody against tyrosine hydroxylase (TH). […] Data is expressed as percentage of the control group. […]

[4] = test system: TH-positive neurons in the SNpc; format: in vivo, C57BL/6 mice; settings: 10 mg/kg/day i.g. positive control, then MPTP
Procedure: Male C57BL/6 mice (20±2 g body weight, 6-8 weeks of age) were purchased from the Laboratory Animal Center of Guangdong Province and were fed six animals per cage, under a 12 h light/dark cycle with ad libitum access to food and water. Mice were handled daily and allowed 3 days to acclimate before each treatment. Six groups of mice (n=7/group, total 42 mice) were assigned for the neuroprotective study in vivo. SchiA at different concentrations (30, 100 or 300 mg/kg/day), positive control drug (Selegiline, 10 mg/kg/day) or vehicle (Tween-80/ml propylene glycol/alcohol/5% PVA, 1:1:1:17, v/v/v/v) were administered by intragastric gavage (i.g.) daily for 14 days. Then mice were injected by intraperitoneal (i.p.) with 30 mg/kg MPTP hydrochloride (Sigma-Aldrich) or physiological saline daily on days 15-19 (total 5 days). In order to allow for the full conversion of MPTP to its active metabolite MPP^+, a further 3 days of resting period followed (Levites, Weinreb et al. 2001). All animal experiments were conducted according to the ethical guidelines for animal experiment of Jinan University. The experimental protocols were approved by the Ethics Committee for Animal Experiments of Jinan University (permit number 20110810).
Three days after MPTP treatment, animals were anesthetized by i.p. administration of […] chloral hydrate (10% (w/v) dissolved in distilled water) and perfused intracardially with 100 mL PBS (0.1 mmol/L, pH 7.4) followed by 150 mL 4% paraformaldehyde (PFA) in PBS. After intracardial perfusion, brains were collected and post-fixed in 4% PFA for another 24 h at 4° C., embedded in paraffin, and cut into 6 μm coronal sections encompassing the entire SNpc. As the decrease of TH-positive neurons in response to MPTP treatment is the most prominent at medial levels of the SNpc (Hayley, Crocker et al. 2004), the inventors selected the sections from the area encompassed between −3.08 and −3.20 from bregma to perform immunohistochemisty. Immunohistochemistry of brain tissues was performed as previously described (He, Yamauchi et al. 2008; Yokoyama, Takagi et al. 2008) with minor modifications. Sections were deparaffinized in xylene and rehydrated in a graded ethanol series. […] Non-specific protein binding was blocked with 10% bovine serum in PBS (0.01 M, pH 7.4). Between each treatment, the slides were washed at least three times with deionized water for 5 minutes. […] The results were analyzed by counting the numbers of TH-positive cells at ×10 magnifications on a stereomicroscope (BX51, Olympus Corp. Japan). TH-positive cells in 6 position-matched sections of each mouse were counted manually by operator who was blinded to the drug treatment. […]

COc1cc2c(c(OC)c1OC)-c1c(cc(OC)c(OC)c1OC)C[C@](C)(O)[C@@H](C)C2 [Schizandrol A, reference compound]
protection against MPP+-induced cell damage (cell viability) (SH-SY5Y cells [1]): did not show protective effects | CC50 (SH-SY5Y cells [2]): 155 µM | protection against 6-OHDA-induced damage (cell viability) (SH-SY5Y cells [3]): did not show protective effects

N[C@@H](Cc1ccc(O)c(O)c1)C(=O)O [L-dopa]
deficit of locomotor activity of 6-OHDA-treated zebrafish (zebrafish larvae; 150 μM positive control with 6-OHDA): rescued the deficit of locomotor activity of 6-OHDA-treated zebrafish to normal

CN1Cc2c(N)cccc2C(c2ccccc2)C1 (stereo not shown) [Nomifensine, nomifensine, reference compound]
deficit of locomotor activity of 6-OHDA-treated zebrafish (zebrafish larvae; 3 μM positive control with 6-OHDA): rescued the deficit of locomotor activity of 6-OHDA-treated zebrafish to normal | 6-OHDA-induced dopaminergic neuron loss (area of TH+ cells) (DA neurons in zebrafish): considerable protection

COc1c2c(cc3c1-c1c(cc4c(c1OC)OCO4)C[C@H](C)[C@H](C)C3)OCO2 [SC, Schizandrin C]
EC50 (SH-SY5Y cells [1]; pre-treated 12 h, then 2 mM MPP+ 36 h): 15.3 µM | protection against MPP+-induced cell damage (cell viability) (SH-SY5Y cells [1]): protect against MPP^+-induced cell damage in a dose-dependent manner | CC50 (SH-SY5Y cells [2]; treated 12 h, MTT, read-out: LC50 (the source's name)): 135 µM | protection against 6-OHDA-induced damage (cell viability) (SH-SY5Y cells [3]): protected SH-SY5Y cells against 6-OHDA-induced damage in a dose-dependent manner | EC50 (SH-SY5Y cells [3]; pre-treated 12 h, then 400 μM 6-OHDA 4 h): 15.3 µM

C#CCN(C)[C@H](C)Cc1ccccc1 [selegiline, reference compound]
TH-positive neurons in SNpc [4]: 80±15 cells/section

AKT inhibitor IV [reference compound]
effect on the protective effect of SchiA on MPP+-induced cytotoxicity (SH-SY5Y cells [1]; 2 μM 1 h pre-incubation, then SchiA 12 h, 2 mM MPP+ 36 h, MTT): clearly abrogate the protective effect of SchiA

COc1cc2c(c(OC)c1OC)-c1c(cc(OC)c(OC)c1OC)C[C@H](C)[C@H](C)C2 [Schizandrin A, reference compound]
protection against MPP+-induced cell damage (cell viability) (SH-SY5Y cells [1]): did not show protective effects | CC50 (SH-SY5Y cells [2]): 233 µM | protection against 6-OHDA-induced damage (cell viability) (SH-SY5Y cells [3]): did not show protective effects

COc1cc2c(c(OC)c1OC)-c1c(cc3c(c1OC)OCO3)CC(C)C(C)C2 (stereo not shown) [Schizandrin B, reference compound]
protection against MPP+-induced cell damage (cell viability) (SH-SY5Y cells [1]): did not show protective effects | CC50 (SH-SY5Y cells [2]): 189 µM | protection against 6-OHDA-induced damage (cell viability) (SH-SY5Y cells [3]): did not show protective effects
